According to US4716153A, “Stable oral preparation of macrolide antibiotics and method for stabilizing the same” (priority 1982, dated 1987):

Assay: Elution rate in aqueous solutions of various pH and physiological saline solution
Format: physicochemical
Method: After 40 ml of Japan Pharmacopoeia 1st solution (pH 1.2) was placed in a vessel whose temperature was kept constant in a thermostat at 37° C., 200 mg of TMS-19-Q was added and the mixture was stirred by a magnetic stirrer. […] Then, Japan Pharmacopoeia 2nd solution were mixed with the 1st solution, and by using aqueous solutions whose pH values were adjusted to be 2, 3, 4 and 5 and a physiological saline solution, respectively, elution rate of each thereof was measured.
To 40 ml of Japan Pharmacopoeia 1st solution (pH 1.2), 120 ml of water was added, and after the solution was kept in a constant temperature bath controlled at 37° C., 200 mg of midecamycin was added, and the mixture was stirred by a magnetic stirrer. Then, 5 ml aliquots of the solution were sampled in a lapse of time (at 5 minutes, 15 minutes and 30 minutes), and absorbances were measured (wavelength: 232 nm) and elution rate were calculated. Then, Japan Pharmacopoeia 1st solution and Japan Pharmacopoeia 2nd solution were mixed to prepare aqueous solutions whose pH values were adjusted to be 2, 3, 4 and 5, respectively. By using these solutions and physiological saline solution, the elution rates were calculated following the same procedures as those indicated above.
By following the same procedures and under the same conditions as those of Example 31, elution rates of 9-propionyljosamycin were measured.
By following the same procedures and under the same conditions as those of Example 31, elution rates of josamycin were measured.
In addition to the conditions of Example 31, Japan Pharmacopoeia 1st solution and Japan Parmacopoeia 2nd solution were mixed to prepare an aqueous solution having pH of 2.5, and following the same procedures as those of Example 31, elution rates of 9,3"-diacetylmidecamycin were measured.

- elution rate, pH 1.2, 2 and 3 (initial pH 1.2, 2 and 3, after 15-minute stirring, 37° C.): ≥ 90%
- elution rate, pH 4 and 5 (initial pH 4 and 5, after 15-minute stirring, 37° C.): 40-45%
- elution rate in pH 1.2-3 acidic aqueous solution (summary) (pH 1.2-3, general description): more than 95%
- elution rate in pH 4-5 weak acidic aqueous solution (summary) (pH 4-5, general description): less than 50%
- elution rate, physiological saline solution (physiological saline solution, after 15-minute stirring, 37° C.): 10%
- elution rate in physiological saline solution (summary) (physiological saline solution, general description): less than 15%
- time within which elution was nearly completed (solutions whose pH is equal to or less than 4.5): ≤ 15 min
SMILES: CCCC(=O)OC1C(C)OC(OC2C(C)OC(OC3C(CC=O)CC(C)C(O)/C=C/C=C/CC(C)OC(=O)CC(O)C3OC)C(O)C2N(C)C)CC1(C)OC(=O)CC (stereo not shown) [TMS-19-Q, 3"-propionyl leucomycin A5]
